Experimental data taken from PubChem BioAssay (NCI).
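Each compound was tested at five concentrations against cells in 96-well plates for 48 hours. GI50 marks 50% less growth. Definition used: TGI = concentration required for complete inhibition of growth.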

Legend:
Assay in all cases: NCI-60 cell line screen, 48 h
[1] = system: MOLT-4 leukemia
[2] = system: TK-10 renal
[3] = system: SN12C renal
[4] = system: OVCAR-5 ovarian
[5] = system: COLO 205 colon
[6] = system: KM12 colon
[7] = system: MDA-MB-231 breast
[8] = system: HL-60(TB) leukemia
[9] = system: HOP-92 NSCLC
[10] = system: K-562 leukemia

Compound	TGI [1] [µM]	TGI [2] [µM]	TGI [3] [µM]	TGI [4] [µM]	TGI [5] [µM]	TGI [6] [µM]	TGI [7] [µM]	TGI [8] [µM]	TGI [9] [µM]	TGI [10] [µM]	GI50 [1] [µM]	GI50 [2] [µM]	GI50 [3] [µM]	GI50 [4] [µM]	GI50 [5] [µM]	GI50 [6] [µM]	GI50 [7] [µM]	GI50 [8] [µM]	GI50 [9] [µM]	GI50 [10] [µM]
CCOC(=O)Nc1ccc(S(=O)(=O)Nn2cnnc2)cc1	> 100	> 100	> 100	> 100	> 100	> 100	> 100	> 100	> 100	77.9	–	–	–	–	–	–	–	–	–	–
NC(=S)NC/C=C/Cl	> 100	> 100	–	> 100	> 100	> 100	> 100	> 100	> 100	> 100	–	–	–	–	–	–	–	–	–	–
Cn1c(=O)sc2cc(C(=S)N3CCCCC3)ccc21	> 100	> 100	> 100	> 100	> 100	> 100	> 100	42.7	–	> 100	–	–	–	–	–	–	–	–	–	–
Cc1cc(-c2nc3cccc(O)c3s2)ccc1N	78.4	> 100	> 100	–	58.1	36.7	> 100	47.2	> 100	> 100	–	–	–	–	–	–	–	–	–	–
CCN(CC)C(=O)CCN1CC1	> 10	> 10	> 10	> 10	> 10	> 10	> 10	> 10	> 10	> 10	–	–	–	–	–	–	–	–	–	–
Cc1cc(S(=O)(=O)/N=C(/NN)Nc2ccc(Cl)cc2)c(S)cc1Cl	58.9	65.3	75.8	12.9	33	19.3	84.2	63.8	67.9	> 100	–	–	–	–	–	–	–	–	–	–
COc1cccc(C2c3cc4c(cc3OC(Nc3ccccc3)C2C)OCO4)c1O (stereo not given)	16	64.2	27.8	> 93.8	> 35.6	24.8	37	> 23.9	9.93	15	–	–	–	–	–	–	–	–	–	–
O=c1c2nc(-c3ccccc3)oc2n(-c2ccccc2)c(=O)n1-c1ccccc1	> 46.4	21.5	> 46.4	> 46.4	> 46.4	> 46.4	> 46.4	> 100	24.4	> 46.4	–	–	–	–	–	–	–	–	–	–
CC1(C)CC[C@]2(C(=O)O)CC[C@]3(C)[C@H](C(=O)C=C4[C@@]5(C)C=C(C#N)C(=O)C(C)(C)[C@@H]5CC[C@]43C)[C@@H]2C1	13.9	2.02	2.97	2.12	1.49	1.61	7.34	11.4	8.16	27.1	–	–	–	–	–	–	–	–	–	–
O=C1/C(=C/c2cccc3ccccc23)CCc2ccc([N+](=O)[O-])cc21	> 100	> 100	> 100	> 100	> 100	> 100	> 100	> 100	74.4	> 100	–	–	–	–	–	–	–	–	–	–
CC(C)(C)C1=C(Br)C(O)(C(C)(C)C)OP1(=O)c1ccccc1 (stereo not given)	> 100	> 100	> 100	> 100	> 100	> 100	> 100	> 100	> 100	> 100	–	–	–	–	–	–	–	–	–	–
CCSC1=CC2(O)N(CCc3ccc(OC)c(OC)c3)C(=O)CC2(C(=O)OC)CC1=O (stereo not given)	90.8	37.5	36.3	> 100	> 100	33.4	35.4	73.5	29.7	> 100	–	–	–	–	–	–	–	–	–	–
COC(=O)Cn1cnc2c(Cl)nc(Nc3ccccc3)nc21	84.7	> 100	> 100	–	> 100	> 100	> 100	> 100	–	> 100	–	–	–	–	–	–	–	–	–	–
O=C(c1ccc(Cl)cc1)N1CCN=C1c1cc2ccccc2c2ccccc12	> 100	29.2	30.6	35.1	29.5	30.6	29.9	49.9	26.3	95.8	–	–	–	–	–	–	–	–	–	–
CC1(C)Oc2ccc3c(=O)cc(-c4ccccc4)oc3c2C1C(=O)O (stereo not given)	> 100	> 100	> 100	> 100	> 100	–	> 100	> 100	–	> 100	–	–	–	–	–	–	–	–	–	–
O=[Se](O)O	> 100	> 100	> 100	4.82	> 60.3	> 64.6	3.05	> 100	–	> 100	–	–	–	–	–	–	–	–	–	–
C[C@H](C1CC2(C)OC2(C)C(=O)O1)[C@H]1CC[C@H]2[C@@H]3[C@@H]4O[C@@H]4[C@@]4(O)CC=CC(=O)[C@]4(C)[C@H]3CC[C@]12C (stereo not given in full)	> 50	> 50	> 50	> 50	> 50	> 50	> 50	> 50	> 50	> 50	–	–	–	–	–	–	–	–	–	–
S=C1SC(=Nc2ccccc2)C(=Nc2ccccc2)N1c1ccc2ccccc2c1	–	–	> 100	> 100	> 100	> 100	> 100	> 100	–	> 100	–	–	–	–	–	–	–	–	–	–
O=C(O)c1cccc(NC(C(=O)c2ccccc2)c2ccccc2)c1 (stereo not given)	> 100	> 100	> 100	> 100	> 100	> 100	> 100	> 100	> 100	> 100	–	–	–	–	–	–	–	–	–	–
CC(C)Oc1cccc(N2C(Nc3ccccc3)=Nc3ccncc3S2(=O)=O)c1	> 100	–	> 100	> 100	28.8	65.8	> 100	6.01	49	> 100	–	–	–	–	–	–	–	–	–	–
Cc1nc(-c2cc3ccccc3oc2=O)cs1	> 100	> 100	> 100	> 100	> 100	> 100	72.6	> 100	53.9	> 100	–	–	–	–	–	–	–	–	–	–
NCCSCCC(=O)O	> 100	> 100	> 100	> 100	> 74.3	> 100	> 100	> 100	> 100	> 100	–	–	–	–	–	–	–	–	–	–

Compound	TGI [1] [µM]	TGI [2] [µM]	TGI [3] [µM]	TGI [4] [µM]	TGI [5] [µM]	TGI [6] [µM]	TGI [7] [µM]	TGI [8] [µM]	TGI [9] [µM]	TGI [10] [µM]	GI50 [1] [µM]	GI50 [2] [µM]	GI50 [3] [µM]	GI50 [4] [µM]	GI50 [5] [µM]	GI50 [6] [µM]	GI50 [7] [µM]	GI50 [8] [µM]	GI50 [9] [µM]	GI50 [10] [µM]
O=C(N=Nc1ccccc1Cl)NNc1ccccc1Cl	82.9	> 100	> 100	> 100	–	–	> 100	44.9	–	73.1	–	–	–	–	–	–	–	–	–	–
O=C(OCc1ccccc1)N1CCNCCNCCN(C(=O)OCc2ccccc2)CCNCC1	38.9	67.2	> 100	> 100	26.8	70	65.1	21.7	46.7	29.8	–	–	–	–	–	–	–	–	–	–
Cc1nc(Nc2ccccc2Cl)sc1C(=O)CC(=O)C(N)=O	> 100	> 100	> 100	> 100	> 100	> 100	> 100	> 100	> 100	> 100	–	–	–	–	–	–	–	–	–	–
Cc1ccccc1NC(=O)CC(=O)NNC(Sc1ccccc1)c1cc(N=Nc2ccc(Br)cc2)ccc1O (stereo not given)	3.1	> 10	> 10	> 10	> 10	> 10	6.05	0.907	> 10	7.56	–	–	–	–	–	–	–	–	–	–
O=c1[nH]nc(Cc2ccc(Cl)cc2)n1/N=C/c1ccc([N+](=O)[O-])o1	> 26.6	18.5	> 100	> 54.6	> 20.1	6.59	> 34.7	> 26.1	> 46.8	> 31	–	–	–	–	–	–	–	–	–	–
COc1ccccc1NC(=O)CC(=O)NN	> 100	> 100	> 100	> 100	> 100	> 100	> 100	> 100	> 100	> 100	–	–	–	–	–	–	–	–	–	–
COc1ccccc1C1C(C#N)=C(N)Oc2n[nH]c(C)c21 (stereo not given)	> 100	> 100	> 100	> 100	> 100	> 100	> 100	> 100	> 100	> 100	> 100	> 100	14.8	> 100	> 100	> 100	15.1	62	41.2	> 100
Cc1c2cccc-2ccc2c3ccccc3n(C(=O)c3ccc(Cl)cc3)c12	> 100	> 100	> 100	> 100	> 100	> 100	> 100	> 100	> 100	> 100	–	–	–	–	–	–	–	–	–	–
COc1cc(N(CCC#N)CCC#N)ccc1/C=N\NC(=O)c1ccc(C)cc1	> 100	> 100	> 100	> 100	> 100	> 100	36.7	> 100	> 100	> 100	–	–	–	–	–	–	–	–	–	–
O=c1[nH]c(=O)n(C2OC(CO)C(O)C2O)cc1OCCCc1ccccc1 (stereo not given)	> 100	> 100	> 100	> 100	> 100	> 100	> 100	> 100	–	–	–	–	–	–	–	–	–	–	–	–
Oc1ccc(-c2nc3ccccc3s2)cc1	> 100	–	> 100	> 100	> 100	38.8	63.4	> 100	> 100	> 100	–	–	–	–	–	–	–	–	–	–
COC(=O)Nc1nc2ccc(NC(=O)c3ccc(I)cc3)cc2[nH]1	> 100	> 100	> 100	> 100	> 100	> 100	> 100	> 100	> 100	> 100	–	–	–	–	–	–	–	–	–	–
COc1cc2nc(-c3cccs3)nc(Nc3cccc(Cl)c3)c2cc1OC	> 100	25.3	> 100	> 100	> 100	> 100	> 100	> 100	> 100	> 100	–	–	–	–	–	–	–	–	–	–
CC(CNC(N)=O)NC(N)=O (stereo not given)	> 100	> 100	> 100	> 100	> 100	> 100	> 100	> 100	> 100	> 100	–	–	–	–	–	–	–	–	–	–
CC1(C)C=C(/C=N/Nc2ccccc2)C(C#N)=C(O)C1(C#N)C#N	> 100	> 100	> 100	> 100	> 100	> 100	> 100	> 100	99.6	> 100	–	–	–	–	–	–	–	–	–	–
CCOc1cc2c(cc1O)C(O)C[C@@H]1[C@@H]2CC[C@]2(C)[C@@H](O)CC[C@@H]12 (stereo not given in full)	> 100	> 100	> 100	> 100	60.8	> 100	> 66	–	> 100	> 36.4	–	–	–	–	–	–	–	–	–	–
O=C1NC(N2CCOCC2)=N/C1=C\c1ccc(O)cc1	> 100	> 100	> 100	> 100	> 100	> 100	> 100	> 100	> 100	–	–	–	–	–	–	–	–	–	–	–
CCCCCCCCC#CCCCCCCCCCC[C@@H]1C(=O)O[C@H](C)[C@@H]1O (tested in a mixture with another compound)	33.5	40.8	32.3	> 100	> 100	21.9	94.6	–	25.1	21.4	–	–	–	–	–	–	–	–	–	–
CC(=O)C(C)(C)CCC(C)(C)C(C)=O	> 100	> 100	> 100	> 100	> 100	> 100	> 100	> 100	–	> 100	–	–	–	–	–	–	–	–	–	–
Cc1ncc(COP(=O)(O)O)c(/C=C2\SC(=S)NC2=O)c1O	> 100	> 100	> 100	> 100	> 100	> 100	> 100	–	> 100	> 100	–	–	–	–	–	–	–	–	–	–
Clc1ccc(C2=CCN3CC=C(c4ccc(Cl)cc4)C23)cc1	28	27.5	21	17	6.28	19.2	25	19.7	–	45.2	–	–	–	–	–	–	–	–	–	–
COc1ccc2cc(C(C)C(=O)N3C(=O)OCC3(C)C)ccc2c1 (stereo not given)	> 100	> 100	> 100	> 100	> 100	–	> 100	> 100	> 100	> 100	–	–	–	–	–	–	–	–	–	–
